Reference: US20240398784A1, “C-LINKED ISOQUINOLINE AMIDES AS LRRK2 INHIBITORS, PHARMACEUTICAL COMPOSITIONS, AND USES THEREOF” (Merck Sharp & Dohme LLC, priority 2021, published 2024)

Biological target: LRRK2 G2019S (Homo sapiens, UniProt Q5S007, G2019S)
Experiment: LRRK2 G2019S Km ATP LanthaScreen assay
Assay type: biochemical
Details: read-out: LRRK2 pIC50 (converted)

LRRK2 G2019S, sequence (Q5S007 whole entry G2019S): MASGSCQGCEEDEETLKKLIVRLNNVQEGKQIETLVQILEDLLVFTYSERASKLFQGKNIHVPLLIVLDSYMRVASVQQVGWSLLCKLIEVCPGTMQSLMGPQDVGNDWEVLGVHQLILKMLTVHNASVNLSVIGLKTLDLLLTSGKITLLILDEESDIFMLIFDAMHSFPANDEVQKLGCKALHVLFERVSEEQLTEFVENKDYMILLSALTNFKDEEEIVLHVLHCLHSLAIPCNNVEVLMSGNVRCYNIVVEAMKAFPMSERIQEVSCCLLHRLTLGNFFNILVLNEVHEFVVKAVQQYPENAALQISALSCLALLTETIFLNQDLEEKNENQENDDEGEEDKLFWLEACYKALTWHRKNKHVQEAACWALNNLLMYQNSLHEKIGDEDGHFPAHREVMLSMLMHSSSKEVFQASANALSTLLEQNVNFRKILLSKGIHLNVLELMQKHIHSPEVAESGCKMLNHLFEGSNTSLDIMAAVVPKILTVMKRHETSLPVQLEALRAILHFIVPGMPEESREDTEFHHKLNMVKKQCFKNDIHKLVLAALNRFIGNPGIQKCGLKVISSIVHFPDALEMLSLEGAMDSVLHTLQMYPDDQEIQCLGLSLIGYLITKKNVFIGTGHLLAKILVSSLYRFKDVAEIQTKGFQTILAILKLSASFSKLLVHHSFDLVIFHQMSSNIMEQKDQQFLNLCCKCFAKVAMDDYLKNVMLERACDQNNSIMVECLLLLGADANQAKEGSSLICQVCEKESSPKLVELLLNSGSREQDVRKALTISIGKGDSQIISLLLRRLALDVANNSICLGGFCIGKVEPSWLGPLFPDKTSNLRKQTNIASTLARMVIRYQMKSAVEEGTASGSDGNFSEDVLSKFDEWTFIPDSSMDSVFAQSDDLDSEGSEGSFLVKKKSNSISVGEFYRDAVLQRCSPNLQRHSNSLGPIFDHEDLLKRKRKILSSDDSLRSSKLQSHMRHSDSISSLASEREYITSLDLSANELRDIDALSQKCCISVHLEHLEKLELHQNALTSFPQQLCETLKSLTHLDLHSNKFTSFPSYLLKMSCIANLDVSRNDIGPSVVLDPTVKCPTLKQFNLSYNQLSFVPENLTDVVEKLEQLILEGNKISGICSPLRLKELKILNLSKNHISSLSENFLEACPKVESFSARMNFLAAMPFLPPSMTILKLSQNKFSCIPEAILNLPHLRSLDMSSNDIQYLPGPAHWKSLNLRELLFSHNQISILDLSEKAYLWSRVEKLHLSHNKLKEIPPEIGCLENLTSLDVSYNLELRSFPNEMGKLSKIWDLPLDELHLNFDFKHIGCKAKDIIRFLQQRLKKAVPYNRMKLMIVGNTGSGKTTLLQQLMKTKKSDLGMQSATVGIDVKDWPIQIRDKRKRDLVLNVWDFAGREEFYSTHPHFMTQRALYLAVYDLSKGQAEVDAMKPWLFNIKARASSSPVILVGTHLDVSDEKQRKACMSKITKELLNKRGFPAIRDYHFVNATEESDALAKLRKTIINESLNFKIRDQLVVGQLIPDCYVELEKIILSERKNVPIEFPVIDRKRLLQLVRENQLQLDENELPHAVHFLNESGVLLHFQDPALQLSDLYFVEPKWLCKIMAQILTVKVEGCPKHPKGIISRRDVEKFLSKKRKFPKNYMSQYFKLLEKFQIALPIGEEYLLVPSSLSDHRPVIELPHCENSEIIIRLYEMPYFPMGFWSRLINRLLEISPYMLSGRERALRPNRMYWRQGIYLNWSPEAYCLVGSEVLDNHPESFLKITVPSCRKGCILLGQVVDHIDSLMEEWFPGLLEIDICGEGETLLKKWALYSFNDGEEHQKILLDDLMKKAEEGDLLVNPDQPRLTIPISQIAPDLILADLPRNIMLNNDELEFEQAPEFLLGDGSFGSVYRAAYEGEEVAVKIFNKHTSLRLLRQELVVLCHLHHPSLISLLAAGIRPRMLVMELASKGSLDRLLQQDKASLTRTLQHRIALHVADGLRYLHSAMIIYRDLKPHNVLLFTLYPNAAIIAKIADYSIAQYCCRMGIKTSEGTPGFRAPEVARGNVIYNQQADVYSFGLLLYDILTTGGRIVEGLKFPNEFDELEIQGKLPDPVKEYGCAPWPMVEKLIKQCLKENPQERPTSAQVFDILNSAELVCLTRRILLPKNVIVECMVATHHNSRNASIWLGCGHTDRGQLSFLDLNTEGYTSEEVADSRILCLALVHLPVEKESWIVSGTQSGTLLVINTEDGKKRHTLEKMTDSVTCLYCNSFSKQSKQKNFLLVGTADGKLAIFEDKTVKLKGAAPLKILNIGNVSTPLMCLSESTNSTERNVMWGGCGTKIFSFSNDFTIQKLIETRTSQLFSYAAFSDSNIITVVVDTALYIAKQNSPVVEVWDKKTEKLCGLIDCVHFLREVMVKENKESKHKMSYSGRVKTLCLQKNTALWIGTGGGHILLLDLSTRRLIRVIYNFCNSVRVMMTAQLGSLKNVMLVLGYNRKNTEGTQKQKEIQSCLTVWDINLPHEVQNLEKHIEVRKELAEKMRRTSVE

O=C(Nc1cc2cc(C3CCC(N4CC(F)C4)CC3)c(Cl)cc2cn1)C1CC1c1ccccn1 (single isomer, unassigned) [Ex-5.2, (1R,2R or 1S,2S)-N-(7-chloro-6-((cis or trans)-4-(3-fluoroazetidin-1-yl)cyclohexyl)isoquinolin-3-yl)-2-(pyridin-2-yl)cyclopropane-1-carboxamide]
IC50: 661 nM

O=C(Nc1cc2cc(C3CCC(N4CC(F)(F)C4)CC3)c(Cl)cc2cn1)C1CC1c1ccccn1 (single isomer, unassigned) [Ex-5.3, N-(7-chloro-6-(4-(3,3-difluoroazetidin-1-yl)cyclohexyl)isoquinolin-3-yl)-2-(pyridin-2-yl)cyclopropane-1-carboxamide]
IC50: 110 nM

O=C(Nc1cc2cc(C3CCC(N4CC(F)(F)C4)CC3)c(Cl)cc2cn1)C1CC1c1ccccn1 (single isomer, unassigned) [Ex-5.4, N-(7-chloro-6-(4-(3,3-difluoroazetidin-1-yl)cyclohexyl)isoquinolin-3-yl)-2-(pyridin-2-yl)cyclopropane-1-carboxamide]
IC50: 47.9 nM

O=C(Nc1cc2cc(C3CCC(N4CC(F)(F)C4)CC3)c(Cl)cc2cn1)C1CC1c1ccccn1 (single isomer, unassigned) [Ex-5.5, N-(7-chloro-6-(4-(3,3-difluoroazetidin-1-yl)cyclohexyl)isoquinolin-3-yl)-2-(pyridin-2-yl)cyclopropane-1-carboxamide]
IC50: 0.275 nM

O=C(Nc1cc2cc(C3CCC(N4CC(F)(F)C4)CC3)c(Cl)cc2cn1)C1CC1c1ccccn1 (single isomer, unassigned) [Ex-5.6, N-(7-chloro-6-(4-(3,3-difluoroazetidin-1-yl)cyclohexyl)isoquinolin-3-yl)-2-(pyridin-2-yl)cyclopropane-1-carboxamide]
IC50: 912 nM

Cn1cc(C2CC2C(=O)Nc2cc3cc(C4CCC(N5CC(F)C5)CC4)c(Cl)cc3cn2)cn1 (single isomer, unassigned) [Ex-5.7, N-(7-cchloro-6-(4-(3-fluoroazetidin-1-yl)cyclohexyl)isoquinolin-3-yl)-2-(1-methyl-1H-pyrazol-4-yl)cyclopropane-1-carboxamide]
IC50: 1.91 nM

Cn1cc(C2CC2C(=O)Nc2cc3cc(C4CCC(N5CC(F)C5)CC4)c(Cl)cc3cn2)cn1 (single isomer, unassigned) [Ex-5.8, N-(7-cchloro-6-(4-(3-fluoroazetidin-1-yl)cyclohexyl)isoquinolin-3-yl)-2-(1-methyl-1H-pyrazol-4-yl)cyclopropane-1-carboxamide]
IC50: 8.71 nM

CC1(C)CC(C(=O)Nc2cc3cc(C4CCC(N5CCC(F)C5)CC4)c(Cl)cc3cn2)CCO1 (single isomer, unassigned) [Ex-5.9, N-(7-chloro-6-(4-(3-fluoropyrrolidin-1-yl)cyclohexyl)isoquinolin-3-yl)-2,2-dimethyltetrahydro-2H-pyran-4-carboxamid]
IC50: 1.78 nM

CC1(C)CC(C(=O)Nc2cc3cc(C4CCC(N5CCC(F)C5)CC4)c(Cl)cc3cn2)CCO1 (single isomer, unassigned) [Ex-5.10, N-(7-chloro-6-(4-(3-fluoropyrrolidin-1-yl)cyclohexyl)isoquinolin-3-yl)-2,2-dimethyltetrahydro-2H-pyran-4-carboxamid]
IC50: 3.02 nM

CC1(C)CC(C(=O)Nc2cc3cc(C4CCC(N5CCC(F)C5)CC4)c(Cl)cc3cn2)CCO1 (single isomer, unassigned) [Ex-5.11, N-(7-chloro-6-(4-(3-fluoropyrrolidin-1-yl)cyclohexyl)isoquinolin-3-yl)-2,2-dimethyltetrahydro-2H-pyran-4-carboxamid]
IC50: 70.8 nM

CC1(C)CC(C(=O)Nc2cc3cc(C4CCC(N5CCC(F)C5)CC4)c(Cl)cc3cn2)CCO1 (single isomer, unassigned) [Ex-5.12, N-(7-chloro-6-(4-(3-fluoropyrrolidin-1-yl)cyclohexyl)isoquinolin-3-yl)-2,2-dimethyltetrahydro-2H-pyran-4-carboxamid]
IC50: 2.24 nM

CC1(C)CC(C(=O)Nc2cc3cc(C4CCC(N5CCC(F)C5)CC4)c(Cl)cc3cn2)CCO1 (single isomer, unassigned) [Ex-5.13, N-(7-chloro-6-(4-(3-fluoropyrrolidin-1-yl)cyclohexyl)isoquinolin-3-yl)-2,2-dimethyltetrahydro-2H-pyran-4-carboxamid]
IC50: 479 nM

CC1(C)CC(C(=O)Nc2cc3cc(C4CCC(N5CCC(F)C5)CC4)c(Cl)cc3cn2)CCO1 (single isomer, unassigned) [Ex-5.14, N-(7-chloro-6-(4-(3-fluoropyrrolidin-1-yl)cyclohexyl)isoquinolin-3-yl)-2,2-dimethyltetrahydro-2H-pyran-4-carboxamid]
IC50: 38.9 nM

CC1(C)CC(C(=O)Nc2cc3cc(C4CCC(N5CCC(F)C5)CC4)c(Cl)cc3cn2)CCO1 (single isomer, unassigned) [Ex-5.15, N-(7-chloro-6-(4-(3-fluoropyrrolidin-1-yl)cyclohexyl)isoquinolin-3-yl)-2,2-dimethyltetrahydro-2H-pyran-4-carboxamid]
IC50: 1.29 nM

CC1(C)CC(C(=O)Nc2cc3cc(C4CCC(N5CCC(F)C5)CC4)c(Cl)cc3cn2)CCO1 (single isomer, unassigned) [Ex-5.16, N-(7-chloro-6-(4-(3-fluoropyrrolidin-1-yl)cyclohexyl)isoquinolin-3-yl)-2,2-dimethyltetrahydro-2H-pyran-4-carboxamid]
IC50: 389 nM

CC1(C)CCC(C(=O)Nc2cc3cc(C4CCC(N5CCC(F)C5)CC4)c(Cl)cc3cn2)CO1 (single isomer, unassigned) [Ex-5.17, N-(7-chloro-6-(4-(3-fluoropyrrolidin-1-yl)cyclohexyl)isoquinolin-3-yl)-6,6-dimethyltetrahydro-2H-pyran-3-carboxamide]
IC50: 5.62 nM

CC1(C)CCC(C(=O)Nc2cc3cc(C4CCC(N5CCC(F)C5)CC4)c(Cl)cc3cn2)CO1 (single isomer, unassigned) [Ex-5.18, N-(7-chloro-6-(4-(3-fluoropyrrolidin-1-yl)cyclohexyl)isoquinolin-3-yl)-6,6-dimethyltetrahydro-2H-pyran-3-carboxamide]
IC50: 1020 nM

CC1(C)CCC(C(=O)Nc2cc3cc(C4CCC(N5CCC(F)C5)CC4)c(Cl)cc3cn2)CO1 (single isomer, unassigned) [Ex-5.19, N-(7-chloro-6-(4-(3-fluoropyrrolidin-1-yl)cyclohexyl)isoquinolin-3-yl)-6,6-dimethyltetrahydro-2H-pyran-3-carboxamide]
IC50: 2.34 nM

CC1(C)CCC(C(=O)Nc2cc3cc(C4CCC(N5CCC(F)C5)CC4)c(Cl)cc3cn2)CO1 (single isomer, unassigned) [Ex-5.20, N-(7-chloro-6-(4-(3-fluoropyrrolidin-1-yl)cyclohexyl)isoquinolin-3-yl)-6,6-dimethyltetrahydro-2H-pyran-3-carboxamide]
IC50: 10.5 nM

CC1(C)CCC(C(=O)Nc2cc3cc(C4CCC(N5CCC(F)C5)CC4)c(Cl)cc3cn2)CO1 (single isomer, unassigned) [Ex-5.21, N-(7-chloro-6-(4-(3-fluoropyrrolidin-1-yl)cyclohexyl)isoquinolin-3-yl)-6,6-dimethyltetrahydro-2H-pyran-3-carboxamide]
IC50: 3630 nM

CC1(C)CCC(C(=O)Nc2cc3cc(C4CCC(N5CCC(F)C5)CC4)c(Cl)cc3cn2)CO1 (single isomer, unassigned) [Ex-5.22, N-(7-chloro-6-(4-(3-fluoropyrrolidin-1-yl)cyclohexyl)isoquinolin-3-yl)-6,6-dimethyltetrahydro-2H-pyran-3-carboxamide]
IC50: 6.17 nM

CC1(C)CCC(C(=O)Nc2cc3cc(C4CCC(N5CCC(F)C5)CC4)c(Cl)cc3cn2)CO1 (single isomer, unassigned) [Ex-5.23, N-(7-chloro-6-(4-(3-fluoropyrrolidin-1-yl)cyclohexyl)isoquinolin-3-yl)-6,6-dimethyltetrahydro-2H-pyran-3-carboxamide]
IC50: 3020 nM

CC1(C)CCC(C(=O)Nc2cc3cc(C4CCC(N5CCC(F)C5)CC4)c(Cl)cc3cn2)CO1 (single isomer, unassigned) [Ex-5.24, N-(7-chloro-6-(4-(3-fluoropyrrolidin-1-yl)cyclohexyl)isoquinolin-3-yl)-6,6-dimethyltetrahydro-2H-pyran-3-carboxamide]
IC50: 4270 nM

Cn1cc(C2CC2C(=O)Nc2cc3cc(C4CC(N5CC(F)C5)C4)c(Cl)cc3cn2)cn1 (single isomer, unassigned) [Ex-5.25, N-(7-chloro-6-(3-(3-fluoroazetidin-1-yl)cyclobutyl)isoquinolin-3-yl)-2-(1-methyl-1H-pyrazol-4-yl)cyclopropane-1-carboxamide]
IC50: 0.575 nM

Cn1cc(C2CC2C(=O)Nc2cc3cc(C4CC(N5CC(F)C5)C4)c(Cl)cc3cn2)cn1 (single isomer, unassigned) [Ex-5.26, N-(7-chloro-6-(3-(3-fluoroazetidin-1-yl)cyclobutyl)isoquinolin-3-yl)-2-(1-methyl-1H-pyrazol-4-yl)cyclopropane-1-carboxamide]
IC50: 2.34 nM

CC1(N2CCC(c3cc4cc(NC(=O)C5CC56CCOC6)ncc4cc3Cl)CC2)COCC1F (single isomer, unassigned) [Ex-6.1, (R or S)-N-(7-chloro-6-(1-((3R,4R or 3S,4S)-4-fluoro-3-methyltetrahydrofuran-3-yl)piperidin-4-yl)isoquinolin-3-yl)-5-oxaspiro [2.4] heptane-1-carboxamide]
IC50: 42.7 nM

CC1(N2CCC(c3cc4cc(NC(=O)C5CC56CCOC6)ncc4cc3Cl)CC2)COCC1F (single isomer, unassigned) [Ex-6.2, (R or S)-N-(7-chloro-6-(1-((3R,4R or 3S,4S)-4-fluoro-3-methyltetrahydrofuran-3-yl)piperidin-4-yl)isoquinolin-3-yl)-5-oxaspiro [2.4] heptane-1-carboxamide]
IC50: 112 nM

CC1(N2CCC(c3cc4cc(NC(=O)C5CC56CCOC6)ncc4cc3Cl)CC2)COCC1F (single isomer, unassigned) [Ex-6.3, (R or S)-N-(7-chloro-6-(1-((3R,4R or 3S,4S)-4-fluoro-3-methyltetrahydrofuran-3-yl)piperidin-4-yl)isoquinolin-3-yl)-5-oxaspiro [2.4] heptane-1-carboxamide]
IC50: 0.0813 nM
